The record followed here is PMC6522510 (Nature Communications, 2019).

Where two headings read alike, the source gives them in different places.

Set-up in all cases: species or system AML cell lines (8); Primary HTS, single concentration about 10 uM, Cell Titer Glo viability; log10 luminescence, per cent inhibition relative to cycloheximide control
What all share (conditions): 72 h, relative to cycloheximide control, log10 luminescence, inhibitor
For orientation: Cellular ATP, detected with luciferase, serves as a proxy for viable cell number.

Assay [1] relates to MOLM-13.
Assay [2] concerns MV4-11.
The test system of assay [3] is ML-2.
In assay [4] the test system is CMS.
Assay [5] deals with M07e.
Assay [6] concerns CMK.
Assay [7] deals with CHRF288-11.
Assay [8] relates to U937.

`CCn1c(-c2nonc2N)nc2c(C#CC(C)(C)O)ncc(OC3CCNCC3)c21` [SJ000573340-1, N2972-34-A1]: the MOLM-13 %inh in assay [1] was 25.8%. Besides, the MV4-11 %inh in assay [2] came to 14.73%. Moreover, the ML-2 %inh in assay [3] worked out at 4.911%. Besides, the CMS %inh in assay [4] came out at 5.982%. Also, the M07e %inh in assay [5] was 6.128%. In assay [6], the CMK %inh is 1.4%. The CHRF288-11 %inh in assay [7] came out at 8.441%. In assay [8], the U937 %inh came to 50.59%.
As to `COc1ccc2ncn(-c3cc(O[C@H](C)c4ccccc4Cl)c(C(N)=O)s3)c2c1` [SJ000573018-1, U20814/197/10], the MOLM-13 %inh in assay [1] worked out at 77.34%. Besides, in assay [2], the MV4-11 %inh is 78.2%. Also, the ML-2 %inh in assay [3] was 40.68%. The CMS %inh in assay [4] stood at 74.69%. The M07e %inh in assay [5] was 105.8%. For the same compound, the CMK %inh in assay [6] was found to be 106.8%. Besides, in assay [7], the CHRF288-11 %inh is listed as 95.84%. Besides, the U937 %inh in assay [8] was found to be 80.58%.
As for `COc1ccc(-c2nn3ncccc3c2-c2ccnc(Nc3ccc4c(c3)OCCO4)n2)cc1` [SJ000573078-1, U17838/181/2], in assay [1], the MOLM-13 %inh is 3.964%. The MV4-11 %inh in assay [2] was -0.1391%. Moreover, in assay [3], the ML-2 %inh was 1.307%. For the same compound, the CMS %inh in assay [4] is reported as 4.836%. For the same compound, in assay [5], the M07e %inh is 5.255%. The CMK %inh in assay [6] is -0.1559%. Besides, the CHRF288-11 %inh in assay [7] is listed as 4.025%. Further, in assay [8], the U937 %inh is given as 3.638%.
On to `CC(=O)/N=c1/sc(S(N)(=O)=O)nn1C` [SJ000285971-5, METHAZOLAMIDE], for which the MOLM-13 %inh in assay [1] (MOLM-13 %inh, 10 µM) is given as 0.5424%. Also, the MV4-11 %inh in assay [2] (MV4-11 %inh, 10 µM) is given as -3.681%. Further, the ML-2 %inh in assay [3] (ML-2 %inh, 10 µM) turned out to be 3.001%. Besides, the CMS %inh in assay [4] (CMS %inh, 10 µM) is recorded as -3.489%. The M07e %inh in assay [5] (M07e %inh, 10 µM) was -1.211%. The CMK %inh in assay [6] (CMK %inh, 10 µM) is -2.598%. Besides, the CHRF288-11 %inh in assay [7] (CHRF288-11 %inh, 10 µM) is listed as -3.176%. For the same compound, the U937 %inh in assay [8] (U937 %inh, 10 µM) is -1.329%.
For the compound `COc1cccc(C2=C(c3c(C)n(C)c4ccccc34)C(=O)NC2=O)c1` [SJ000581144-1], in assay [1], the MOLM-13 %inh is 3.467%. The MV4-11 %inh in assay [2] amounted to 0.7267%. Moreover, in assay [3], the ML-2 %inh was -0.7501%. Further, in assay [4], the CMS %inh is -0.561%. Besides, in assay [5], the M07e %inh is on record as 8.342%. Further, the CMK %inh in assay [6] was found to be 1.238%. Also, the CHRF288-11 %inh in assay [7] is on record as 0.2394%. Moreover, in assay [8], the U937 %inh worked out at 1.12%.
In the case of `CC1=C(C(=O)Nc2ccc3[nH]ncc3c2)C(c2ccc(F)cc2)NC(=O)N1` (centres unmarked) [SJ000573212-1, SD203460-064A1], in assay [1], the MOLM-13 %inh was -1.98%. In addition, the MV4-11 %inh in assay [2] stood at 13.33%. Also, the ML-2 %inh in assay [3] was found to be 7.379%. Also, the CMS %inh in assay [4] came out at 3.347%. In addition, the M07e %inh in assay [5] was 2.046%. Further, the CMK %inh in assay [6] is given as 22.73%. For the same compound, the CHRF288-11 %inh in assay [7] was determined as 14.28%. Moreover, the U937 %inh in assay [8] was found to be 0.2192%.
For `Nc1ncnc2occ(-c3ccc(NC(=O)Nc4cc(C(F)(F)F)ccc4F)cc3)c12` [SJ000573048-1, CL210513-029A3 | T299/89/1 | YF46626-103A2], the MOLM-13 %inh in assay [1] (MOLM-13 %inh, 10 µM) came to 82.99%. Moreover, the MV4-11 %inh in assay [2] (MV4-11 %inh, 10 µM) was found to be 68.76%. Moreover, the ML-2 %inh in assay [3] (ML-2 %inh, 10 µM) amounted to 1.043%. Besides, the CMS %inh in assay [4] (CMS %inh, 10 µM) is 8.741%. Moreover, in assay [5] (M07e %inh, 10 µM), the M07e %inh is 14.83%. The CMK %inh in assay [6] (CMK %inh, 10 µM) stood at 31.71%. Besides, the CHRF288-11 %inh in assay [7] (CHRF288-11 %inh, 10 µM) is given as 26.14%. The U937 %inh in assay [8] (U937 %inh, 10 µM) is 17.4%.
`COC(=O)CCC(=O)OC1(C)C(=O)C=C2C=C(C3CC3)N(Cc3ccc(OC)cc3)C=C2C1=O` (centres unmarked) [SJ000579817-1]: the MOLM-13 %inh in assay [1] was 6.903%. Besides, the MV4-11 %inh in assay [2] is 0.1893%. The ML-2 %inh in assay [3] is listed as 0.04263%. Also, the CMS %inh in assay [4] came to 1.001%. For the same compound, the M07e %inh in assay [5] was found to be 4.577%. Moreover, the CMK %inh in assay [6] was 0.09613%. In assay [7], the CHRF288-11 %inh is listed as -0.5157%. Also, in assay [8], the U937 %inh is -0.6979%.
Consider `Cc1ccc2c(-c3ccnc(Nc4ccc5c(c4)OCCO5)n3)c(-c3ccc(C(F)(F)F)cc3)nn2n1` [SJ000573347-1, U19201/9/2], for which, in assay [1], the MOLM-13 %inh turned out to be 1.079%. The MV4-11 %inh in assay [2] is listed as -1.366%. Further, in assay [3], the ML-2 %inh is reported as -1.284%. For the same compound, the CMS %inh in assay [4] is given as -0.8147%. Besides, the M07e %inh in assay [5] is recorded as -1.129%. For the same compound, in assay [6], the CMK %inh is recorded as -1.247%. Also, the CHRF288-11 %inh in assay [7] is reported as 4.555%. Also, the U937 %inh in assay [8] came out at 1.52%.
On to `Cn1cc(C2=C(c3cccc(NCC(O)CO)c3)C(=O)NC2=O)c2cc(Cl)ccc21` (centres unmarked) [SJ000581009-1], for which, in assay [1], the MOLM-13 %inh is 37.38%. Besides, the MV4-11 %inh in assay [2] is recorded as 70.02%. Besides, the ML-2 %inh in assay [3] is recorded as 10.75%. Moreover, in assay [4], the CMS %inh is reported as 98.55%. The M07e %inh in assay [5] is given as 19.12%. Also, the CMK %inh in assay [6] is 105.4%. Also, the CHRF288-11 %inh in assay [7] was 28.92%. Also, the U937 %inh in assay [8] is 8.397%.
Regarding `COc1cc(N2CCN(C(C)C)CC2)ccc1Nc1nc(Nc2cccc3ncccc23)c2cc[nH]c2n1` [SJ000573300-1, U24088/12/1], in assay [1], the MOLM-13 %inh was 33.94%. Besides, the MV4-11 %inh in assay [2] is 11.79%. Also, in assay [3], the ML-2 %inh is reported as 8.95%. For the same compound, the CMS %inh in assay [4] is 0.4893%. Besides, in assay [5], the M07e %inh was determined as 3.774%. The CMK %inh in assay [6] came to 79.69%. The CHRF288-11 %inh in assay [7] is recorded as 47.23%. For the same compound, the U937 %inh in assay [8] is on record as 16.14%.
As to `CC(=O)N[C@@H](Cc1ccc(OP(=O)(O)O)cc1)C(=O)N[C@H]1CCC(=O)N2CCC[C@@H](C(=O)NCc3cccc4ccccc34)N2C1=O` [SJ000581126-1], the MOLM-13 %inh in assay [1] is 1.087%. The MV4-11 %inh in assay [2] stood at 0.5498%. For the same compound, in assay [3], the ML-2 %inh is -1.495%. For the same compound, the CMS %inh in assay [4] was 3.071%. The M07e %inh in assay [5] was found to be 3.709%. Further, in assay [6], the CMK %inh amounted to 0.6517%. In addition, the CHRF288-11 %inh in assay [7] is reported as 5.32%. The U937 %inh in assay [8] was 1.351%.
Take `CC1/C=C/C=C/C=C/C=C/C=C/C=C/C=C/C(OC2O[C@H](C)[C@@H](O)[C@H](N)[C@@H]2O)CC(O)C(C(=O)O)C(O)CC(=O)CC(O)CC(O)CC(O)CC(=O)CCCC(=O)CC(=O)OC1C(C)CC(C)C(O)CC(=O)c1ccc(N)cc1` (single isomer, unassigned) [SJ000565161-1, CANDICIDIN]: the MOLM-13 %inh in assay [1] (MOLM-13 %inh, 10 µM) was determined as 72.78%. Besides, the MV4-11 %inh in assay [2] (MV4-11 %inh, 10 µM) is given as 39.81%. The ML-2 %inh in assay [3] (ML-2 %inh, 10 µM) turned out to be 42.43%. The CMS %inh in assay [4] (CMS %inh, 10 µM) is given as 12.57%. The M07e %inh in assay [5] (M07e %inh, 10 µM) was 2.094%. The CMK %inh in assay [6] (CMK %inh, 10 µM) is listed as 120.6%. In assay [7] (CHRF288-11 %inh, 10 µM), the CHRF288-11 %inh was found to be 56.49%. Moreover, the U937 %inh in assay [8] (U937 %inh, 10 µM) is given as 16.5%.
In the case of `COc1cccc(C2=C(c3cn(C)c4cc(F)ccc34)C(=O)NC2=O)c1` [SJ000581149-1], the MOLM-13 %inh in assay [1] was 1.739%. In assay [2], the MV4-11 %inh was 0.4897%. The ML-2 %inh in assay [3] is -0.5942%. In addition, the CMS %inh in assay [4] worked out at 6.064%. Moreover, in assay [5], the M07e %inh is 3.649%. In addition, the CMK %inh in assay [6] is listed as -0.7568%. Moreover, the CHRF288-11 %inh in assay [7] was determined as 1.293%. In addition, the U937 %inh in assay [8] came to 0.6707%.
As for `COc1ccc(-c2nn3ncccc3c2-c2ccnc(Nc3ccc(F)c(F)c3)n2)cc1` [SJ000573231-1, U17838/182/3], in assay [1], the MOLM-13 %inh is listed as -1.234%. In assay [2], the MV4-11 %inh is recorded as -1.012%. In addition, in assay [3], the ML-2 %inh stood at 2.035%. In addition, in assay [4], the CMS %inh came to 1.385%. Also, the M07e %inh in assay [5] is listed as -2.16%. The CMK %inh in assay [6] is reported as 1.273%. Besides, the CHRF288-11 %inh in assay [7] is given as -2.425%. For the same compound, in assay [8], the U937 %inh was -1.69%.
`O=c1c(-c2ccc(O)cc2)coc2cc(O)ccc12` [SJ000285588-6, DAIDZEIN]: the MOLM-13 %inh in assay [1] is -0.07438%. Further, the MV4-11 %inh in assay [2] is reported as 0.1059%. The ML-2 %inh in assay [3] is reported as -1.236%. In addition, the CMS %inh in assay [4] is listed as -1.1%. The M07e %inh in assay [5] is 1.994%. The CMK %inh in assay [6] is -0.373%. For the same compound, the CHRF288-11 %inh in assay [7] was found to be 1.05%. In assay [8], the U937 %inh was -0.9488%.
